# Test results published in the METLIN SMRT retention time set (Domingo-Almenara et al. 2019).
# Assay: gradient 5% acetonitrile 3 min, to 50% in 2 min, to 85% in 15 min, held 3 min, 100 µL/min
# Settings: column: Zorbax Extend-C18 2.1 x 50 mm; eluents: water / acetonitrile, 0.1% formic acid
# Procedure, shortened: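 In both positive and negative ionization mode, a quadrupole time-of-flight mass spectrometer coupled to HPLC analyzed pure standards run in mixtures of ~100 molecules. The Zorbax Extend-C18 column (2.1 × 50 mm, 1.8 μm) was operated at 100 μL/min with water and acetonitrile, each containing 0.1% formic acid. The dead volume was 40 μL and the dwell volume 900 μL. Retention time came from adduct peaks that were computationally picked and individually inspected by hand.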
row,Compound,RP-LC retention time [s]
1,CC(=O)N1CCc2sc(C(=O)NCc3ccc4c(c3)OCO4)cc2C1,682
2,CN1C(=O)C2CCCCN2c2ccc(C(=O)NCCN3CCCC3)cc21 (centres undefined),981
3,CC(C)CCSc1nnc2c(S(=O)(=O)N3CCN(c4ccc(F)cc4)CC3)cccn12,1060
4,CCc1cc(C(=O)Nc2ccc(C#N)cc2)nc2ccnn12,965
5,COc1ccccc1NC(=O)Cn1cccc1-c1nnc(-c2ccccc2)o1,1020
6,CN(C)c1ccc(C(=O)NC2CCN(c3cc(-c4ccccc4)[nH]n3)C2)cc1 (centres undefined),705
7,O=C(Cn1cc(-c2nc(-c3cccs3)no2)ccc1=O)c1ccc2c(c1)OCO2,850
8,CCN1CCN(C(=O)C2CCN(c3ccc(Sc4ccc(C(C)C)cc4)nn3)CC2)CC1,659
9,CCOC(=O)c1ccc(NC(=O)c2c(OCC)cc(=O)n3c2CCCC3)cc1,770
10,CC(=O)c1cccc(NC(=O)Cn2cc3c(n2)CCCC3)c1,760
11,O=C(CCc1ccccc1)Nc1nnc(SCC(=O)c2ccccc2)s1,892
12,O=C(NCCc1ccccc1)c1cc2sccc2n1Cc1ccc(Cl)cc1,1210
13,CCOC(=O)C1=C(CN2CCC(c3ccc(C)cc3)C2)NC(=O)NC1c1cccc(OC)c1OC (centres undefined),713
14,CCN1c2ccccc2C(=O)NC12CCN(C(=O)c1cc(OC)c(OC)c(OC)c1)CC2,714
15,O=C(NCc1ccccc1Br)c1ccc(-c2cncnc2)nc1,748
16,O=C(CN1CCC2(CC1)N=C(c1cccc(F)c1)C(=O)N2)Nc1ccc(Br)cc1F,711
17,CCOc1ccc(C(=O)n2nc(C)c(S(=O)(=O)N3CCC(C)CC3)c2C)cc1,1280
18,CNC(=O)c1c(NC(=O)c2ccccc2Cl)sc2c1CCC2,1010
19,CN(C)c1ccc(C(CNC(=O)c2cccs2)N(C)C)cc1 (centres undefined),618
20,COC(=O)c1cccc(C(=O)N2CCN(c3cccc(C)c3C)CC2)n1,916
21,O=C(Cn1ncc2c(c1=O)N(C1CC1)C(=O)CS2)N1CCCc2ccccc21,745
22,CSc1cccc(NC(=O)N2CCC(N3CCN(Cc4cccc(F)c4)C(=O)C3=O)CC2)c1,779
23,O=C(NCc1ccc(F)cc1F)C1CC(=O)N(c2ccc3c(c2)CCN3C(=O)C2CC2)C1 (centres undefined),750

row,Compound,RP-LC retention time [s]
1,CCN1CCC(CCNC(=O)c2cc3c(s2)N(CC)CCCC3)CC1,685
2,OCCNCCN1CCN(CCCN2c3ccccc3Sc3ccc(C(F)(F)F)cc32)CC1,641
3,COc1ccc(NC(=O)Cn2c(N3CCCCC3)nc(C)cc2=O)c(OC)c1,680
4,N#Cc1cccc(NC(=O)C2CCN(S(=O)(=O)c3ccc4[nH]c(=O)ccc4c3)CC2)c1,706
5,COc1ccc(NC(=O)C2c3ccccc3C(=O)N3CCC(C)CC23)c(OC)c1 (centres undefined),867
6,Cc1ccc(CNc2c(-c3cccc(Br)c3)nc3ncccn23)cc1,927
7,CC(C)C(NC(=O)Cc1ccccc1Cl)C(=O)Nc1nc2ccccc2[nH]1 (centres undefined),731
8,O=C(NCc1cccc(F)c1)C1CC(=O)N(c2n[nH]c3cccc(F)c23)C1 (centres undefined),705
9,Cc1cccc(Cn2nc3ccc(S(=O)(=O)N4CCCCCC4)cn3c2=O)c1,1000
10,COc1ccc(OC)c(S(=O)(=O)N2CCCC(C(=O)NCCc3ccccc3)C2)c1 (centres undefined),854
11,Cc1ccc(NC(=O)C2C(=O)N(CCO)C3(C)CC2c2ccccc2O3)cc1 (centres undefined),727
12,OCC1O[C@H](O)C(Cl)C(O)C1O (some centres undefined),658
13,O=C(Nc1ccc2c(c1)OCCO2)C(=O)c1cn(CC(=O)N2CCCCC2)c2ccccc12,1010
14,CCOC(=O)CC1(NC(=O)N2CCc3c(c(C(=O)N4CCCCC4)nn3C)C2)CCCCC1,810
15,O=C1C2N=NN(Cc3nc(-c4ccccc4Br)no3)C2C(=O)N1c1ccc2c(c1)CCC2 (centres undefined),1060
16,C=CCn1c(=O)c2ccccc2n(Cc2nc(-c3ccc(C)c(C)c3)no2)c1=O,1140
17,CCC(C)C(=O)N1CCc2[nH]nc(C(=O)NCCCc3ccccc3)c2C1 (centres undefined),781
18,CC(=O)NCC(=O)N1[C@@H]2CC[C@H]1c1ccc(Nc3ncc(C(F)(F)F)c(NC4CCC4)n3)cc12,716
19,O=C1CCCCC(Cc2ccccc2)(C(=O)NC2CCS(=O)(=O)C2)N1 (centres undefined),656
20,Cn1c(SCCC(=O)O)nnc1-c1cccnc1,515
21,CCn1c(=O)c(NCCc2ccc(Cl)cc2)nc2ccncc21,596
22,CC1(C)O[C@@H]2C[C@H]3[C@@H]4CCC5=CC(=O)C=C[C@]5(C)[C@H]4[C@@H](O)C[C@]3(C)[C@]2(C(=O)CO)O1,814
23,COC(=O)c1ccsc1NC(=O)c1ccc2c(c1)OCCO2,979

row,Compound,RP-LC retention time [s]
1,CCc1ccc(S(=O)(=O)Nc2cc(C(=O)O)ccc2N2CCN(c3ccccn3)CC2)cc1,669
2,Cc1ccc(NC(=O)C2CCCN(c3cc(=O)n(C)c(=O)n3C)C2)nc1 (centres undefined),597
3,Cc1ccc2c(c1)C1CC(C)(O2)N(c2cccc(C(=O)N3CCCC3)c2)C(=O)N1 (centres undefined),754
4,O=C(CCn1nnc2cc(-c3noc(Cc4ccc(Br)cc4)n3)ccc21)N1CCOCC1,860
5,COc1ccc(OC)c(NC(=O)C2(c3cccs3)CCOCC2)c1,917
6,CCn1c(=O)sc2cc(S(=O)(=O)N3CCC(C(=O)NCc4ccc(F)cc4)CC3)ccc21,979
7,Cc1cccc(NC(=O)N2CCN(c3nc(C)cc(Nc4ccccc4)n3)CC2)c1,733
8,Cc1ccsc1C(=O)N1CCC2(CC1)NC(=O)N(Cc1cccc(Cl)c1)C2=O,852
9,CCOc1ccc(-c2csc(Cc3nc(-c4ccc(OC)cc4)no3)n2)cc1,1230
10,Cc1ccc(Nc2c(-c3ccccc3O)nc3ccc(Br)cn23)cc1,1070
11,Cc1cccc(CNC(=O)c2cn3cccc(C)c3n2)c1,675
12,CN(C)[C@@H]1CN(C(=O)c2cccc(Cl)c2)C[C@H]1CO,559
13,Cc1ccc2c(c1)N(Cc1nc(-c3ccc(Cl)cc3)no1)C(=O)CO2,1130
14,O=C(CCNc1cnc2cnccn12)NCc1cccc(C(F)(F)F)c1,608
15,Cc1c(C(=O)NC2CC2)cnn1-c1cc(-c2nc(C(C)C)no2)ccn1,940
16,CCCN1C(=O)Cc2ccccc2C1C(=O)NCc1ccco1 (centres undefined),721
17,O=C(Nc1cnc(N2CCCCC2)nc1)c1ccc(F)cc1F,934
18,CCNc1cc(N2CCCC(CCC(=O)N3CCC(C(=O)OCC)CC3)C2)ncn1 (centres undefined),646
19,CC(NC(=O)c1ccc(-c2cccs2)nc1)c1ccccc1 (centres undefined),910
20,CN(CC1CCOCC1)S(=O)(=O)Cc1ccccc1F,786
21,O=C(Nc1cnc(-c2ccccc2)nc1)c1ccc(Cl)cc1,1050
22,CCCNC(=O)NC1CCN(c2nc3ccccc3n(C)c2=O)CC1,715
23,O=C(C1=CN(c2ccccc2)c2ccccc2S1(=O)=O)N1CCCCC1,821

row,Compound,RP-LC retention time [s]
1,COc1cccc(Nc2cc(C(=O)N3CCSCC3)nc3c(OC)cccc23)c1,679
2,O=C1COc2ccccc2N1Cc1nc(-c2cccc(Cl)c2)no1,1060
3,CN(C)C(=O)c1ccc2c(c1)nc(CN1CCN(C(=O)c3ccc(C#N)cc3)CC1)n2C,597
4,CC(=O)c1cccc(NC(=O)COc2ccccc2-c2nnc(-c3ccccc3)o2)c1,1190
5,CN1CCc2nnc(C3CCN(C(=O)Nc4cc(Cl)cc(Cl)c4)C3)n2CC1 (centres undefined),623
6,CC(C)N1C(=O)C(C)(C(=O)N2CCN(c3ccccc3F)CC2)Oc2cccnc21 (centres undefined),1130
7,COc1ccc2[nH]cc(CCNC(=O)c3ccc(NC(=O)C4=CSCCO4)cc3)c2c1,800
8,COc1ccc(C(C)NC(=O)C2=C3CCCN3c3ccccc3S2(=O)=O)cc1OC (centres undefined),779
9,O=C(CCC[C@@H]1[C@H]2CCCN3CCC[C@@H](CN1C(=O)c1ccco1)[C@@H]23)Nc1ccccc1,614
10,O=C(Nc1cccc(-c2ccc(N3CCCC3)nn2)c1)c1c(F)cccc1F,647
11,CCCn1cc(SCC(=O)Nc2cc(C)on2)c2ccccc21,883
12,O=C(NCCn1nc(-n2ccnc2)ccc1=O)c1cccc(-n2cnnn2)c1,521
13,CCCN(CC1CCOC1)S(=O)(=O)c1ccccc1C (centres undefined),904
14,CCc1cc(-c2csc(S(=O)(=O)NCCCc3ccccc3)c2)on1,1060
15,CCC(=O)Nc1ccc(C2(C(=O)N3CCN(c4ccccc4)CC3)CCC2)cc1,861
16,COc1ccc(Br)c(-c2nnc(C)o2)c1,797
17,O=C(c1cccc(Cl)c1)N1CCN(c2cnn3c(C4CC4)nnc3c2)CC1,593
18,CCOc1ccc(CNC(=O)C2CCCN(c3ncnc4c3oc3ccccc34)C2)cc1 (centres undefined),784
19,O=C(Cn1nc2c(N3CCCCCC3)nccn2c1=O)Nc1cccc(Cl)c1F,750
20,CCN(CC)S(=O)(=O)c1ccc2c(c1)N(CC(=O)NCCc1ccco1)C(=O)C1CCCCN21 (centres undefined),693
